The text below walks through data of ChEMBL document CHEMBL4020831, “Discovery of GDC-0853: A Potent, Selective, and Noncovalent Bruton's Tyrosine Kinase Inhibitor in Early Clinical Development” (J Med Chem, 2018).

The structures appear in SMILES notation. The source made the active and inactive calls. No cut-off for these calls is given here.

Series [1] has as its system Rattus norvegicus. Kind of series: Antiinflammatory activity in Lewis rat collagen-induced arthritis model assessed as reduction in ankle diameter AUC at 16 mg/kg, po administered qd for 16 days relative to control. Type of series: functional. The conditions noted are these: 384 h.
Series [2] has as its system Rattus norvegicus. Kind of series: Time at which plasma concentration stays above in vitro IC70 for BTK autophosphorylation at Y223 in rat whole blood in Lewis rat collagen-induced arthritis model at 1 to 16 mg/kg, po qd measured during 24 hrs dosing.
The test system of series [3] is Rattus norvegicus. Nature of the series: Antiinflammatory activity in Lewis rat collagen-induced arthritis model assessed as reduction in ankle diameter AUC at 4 mg/kg, po administered qd for 16 days relative to control. Format: functional. The conditions noted are these: 384 h.
For another series, the target named is Cytochrome P450 2C19 (Homo sapiens, UniProt P33261). Nature of the series: Inhibition of CYP2C19 (unknown origin). Format: ADME.
Cytochrome P450 2C19, sequence (P33261 whole entry): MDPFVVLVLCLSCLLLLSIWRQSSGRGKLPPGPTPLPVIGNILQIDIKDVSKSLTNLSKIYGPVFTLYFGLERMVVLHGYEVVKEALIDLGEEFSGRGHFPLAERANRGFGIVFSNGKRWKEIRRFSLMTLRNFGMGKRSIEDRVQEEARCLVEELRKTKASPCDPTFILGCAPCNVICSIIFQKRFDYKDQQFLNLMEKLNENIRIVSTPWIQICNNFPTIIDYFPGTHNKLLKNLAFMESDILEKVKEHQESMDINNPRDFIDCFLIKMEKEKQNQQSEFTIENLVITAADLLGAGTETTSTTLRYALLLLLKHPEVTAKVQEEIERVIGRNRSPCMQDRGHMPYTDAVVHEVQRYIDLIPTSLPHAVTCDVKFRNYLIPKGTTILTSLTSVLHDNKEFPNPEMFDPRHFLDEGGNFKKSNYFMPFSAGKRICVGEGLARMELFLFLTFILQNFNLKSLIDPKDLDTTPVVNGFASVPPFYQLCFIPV
A further series deals with Nav1.5 (Homo sapiens, UniProt Q14524). Nature of the series: Inhibition of human Nav1.5 expressed in CHO cells at 10 uM incubated for 3 to 5 mins by QPatch clamp assay. The conditions noted are these: CHO cells expressing human Nav1.5. Format: cell-based.
Nav1.5, sequence (Q14524 whole entry): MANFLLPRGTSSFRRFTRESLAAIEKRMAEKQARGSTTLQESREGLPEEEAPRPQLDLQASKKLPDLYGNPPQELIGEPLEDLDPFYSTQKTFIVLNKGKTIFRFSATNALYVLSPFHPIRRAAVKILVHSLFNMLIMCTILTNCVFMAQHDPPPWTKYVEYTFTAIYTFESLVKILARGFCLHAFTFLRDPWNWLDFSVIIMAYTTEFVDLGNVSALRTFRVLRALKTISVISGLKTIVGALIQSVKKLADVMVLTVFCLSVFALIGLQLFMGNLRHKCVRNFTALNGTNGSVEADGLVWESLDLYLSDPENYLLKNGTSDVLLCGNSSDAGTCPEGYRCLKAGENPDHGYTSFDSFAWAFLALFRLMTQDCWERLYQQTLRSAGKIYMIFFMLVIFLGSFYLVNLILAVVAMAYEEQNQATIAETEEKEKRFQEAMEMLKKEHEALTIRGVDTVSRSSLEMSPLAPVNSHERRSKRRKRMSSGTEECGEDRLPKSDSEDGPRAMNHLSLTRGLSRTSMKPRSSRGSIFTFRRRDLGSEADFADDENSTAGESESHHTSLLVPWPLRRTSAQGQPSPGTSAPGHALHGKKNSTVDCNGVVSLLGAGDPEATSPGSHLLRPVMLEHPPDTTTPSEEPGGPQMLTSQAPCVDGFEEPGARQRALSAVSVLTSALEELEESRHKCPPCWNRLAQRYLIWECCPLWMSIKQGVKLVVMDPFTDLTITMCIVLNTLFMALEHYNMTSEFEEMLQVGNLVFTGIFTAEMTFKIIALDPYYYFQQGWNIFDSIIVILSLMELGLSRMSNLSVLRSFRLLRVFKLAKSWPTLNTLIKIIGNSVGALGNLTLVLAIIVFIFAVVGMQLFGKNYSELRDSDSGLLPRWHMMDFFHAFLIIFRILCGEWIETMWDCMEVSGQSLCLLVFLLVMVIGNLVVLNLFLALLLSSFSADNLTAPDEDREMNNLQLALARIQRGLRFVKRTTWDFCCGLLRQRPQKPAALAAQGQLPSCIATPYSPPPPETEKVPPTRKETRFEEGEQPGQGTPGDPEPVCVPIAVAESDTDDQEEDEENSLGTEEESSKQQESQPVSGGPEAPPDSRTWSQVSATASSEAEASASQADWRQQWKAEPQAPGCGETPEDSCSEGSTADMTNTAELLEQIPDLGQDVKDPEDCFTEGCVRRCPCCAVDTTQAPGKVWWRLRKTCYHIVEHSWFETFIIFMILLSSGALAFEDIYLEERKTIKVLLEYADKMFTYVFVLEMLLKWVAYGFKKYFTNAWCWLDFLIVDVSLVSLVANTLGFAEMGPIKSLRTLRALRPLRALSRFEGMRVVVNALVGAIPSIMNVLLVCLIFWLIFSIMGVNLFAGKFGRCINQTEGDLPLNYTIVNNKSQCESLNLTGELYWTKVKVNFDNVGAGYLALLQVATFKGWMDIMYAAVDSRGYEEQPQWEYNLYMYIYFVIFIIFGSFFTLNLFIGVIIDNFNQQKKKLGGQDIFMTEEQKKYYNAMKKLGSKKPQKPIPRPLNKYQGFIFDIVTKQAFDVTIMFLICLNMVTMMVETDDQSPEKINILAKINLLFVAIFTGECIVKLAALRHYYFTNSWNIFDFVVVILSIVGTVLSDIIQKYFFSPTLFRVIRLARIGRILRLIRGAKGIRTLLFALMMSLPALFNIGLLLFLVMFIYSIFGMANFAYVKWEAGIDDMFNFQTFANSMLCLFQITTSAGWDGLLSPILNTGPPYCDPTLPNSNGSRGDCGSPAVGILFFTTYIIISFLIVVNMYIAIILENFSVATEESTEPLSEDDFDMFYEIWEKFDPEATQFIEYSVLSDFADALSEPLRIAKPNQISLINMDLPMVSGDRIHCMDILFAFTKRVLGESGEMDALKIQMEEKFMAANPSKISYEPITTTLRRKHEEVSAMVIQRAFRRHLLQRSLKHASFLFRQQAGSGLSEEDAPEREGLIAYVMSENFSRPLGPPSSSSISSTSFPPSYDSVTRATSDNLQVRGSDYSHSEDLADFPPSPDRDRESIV
In another series the test system is Salmonella typhimurium. Kind of series: Genotoxicity in Salmonella typhimurium TA97a after 48 to 72 hrs in absence of liver S9 fraction by Ames test. Format: toxicity. The conditions noted are these: salmonella enterica subsp. enterica serovar typhimurium.
The subject of series [4] is Rattus norvegicus. Kind of series: Antiinflammatory activity in Lewis rat collagen-induced arthritis model assessed as reduction in bone resorption at 0.06 to 16 mg/kg, po administered qd for 16 days. Type of series: functional, organism-based.
The nature of series [5]: Clearance in human liver microsomes at 1 uM incubated up to 60 mins by LC-MS/MS method. Type of series: ADME, microsome.
Another series concerns Homo sapiens. Nature of the series: Toxicity in human at 500 mg administered qd for 14 days. The note with it: in vivo, 336 h.
Series [6] can be described thus: Half life in rat at 0.2 mg/kg, iv or 1 mg/kg, po administered as single dose via cassette dosing. The note with it: in vivo. Type of series: ADME, organism-based.
Another series concerns the target Cav1.2 (Homo sapiens, UniProt Q13936). Nature of the series: Inhibition of human Cav1.2 expressed in CHO cells at 1 uM incubated for 3 to 5 mins by Qpatch clamp assay. Format: cell-based. The conditions noted are these: CHO cells expressing human Cav1.2.
Series [7] concerns Rattus norvegicus. Nature of the series: Antiinflammatory activity in Lewis rat collagen-induced arthritis model assessed as reduction in ankle inflammation at 0.06 to 16 mg/kg, po administered qd for 16 days. Type of series: functional, organism-based.
The subject of series [8] is Rattus norvegicus. Kind of series: Antiinflammatory activity in Lewis rat collagen-induced arthritis model assessed as reduction in ankle pannus at 0.125 to 2 mg/kg, po administered bid for 16 days. Format: functional, organism-based.

Cav1.2, sequence (Q13936 whole entry): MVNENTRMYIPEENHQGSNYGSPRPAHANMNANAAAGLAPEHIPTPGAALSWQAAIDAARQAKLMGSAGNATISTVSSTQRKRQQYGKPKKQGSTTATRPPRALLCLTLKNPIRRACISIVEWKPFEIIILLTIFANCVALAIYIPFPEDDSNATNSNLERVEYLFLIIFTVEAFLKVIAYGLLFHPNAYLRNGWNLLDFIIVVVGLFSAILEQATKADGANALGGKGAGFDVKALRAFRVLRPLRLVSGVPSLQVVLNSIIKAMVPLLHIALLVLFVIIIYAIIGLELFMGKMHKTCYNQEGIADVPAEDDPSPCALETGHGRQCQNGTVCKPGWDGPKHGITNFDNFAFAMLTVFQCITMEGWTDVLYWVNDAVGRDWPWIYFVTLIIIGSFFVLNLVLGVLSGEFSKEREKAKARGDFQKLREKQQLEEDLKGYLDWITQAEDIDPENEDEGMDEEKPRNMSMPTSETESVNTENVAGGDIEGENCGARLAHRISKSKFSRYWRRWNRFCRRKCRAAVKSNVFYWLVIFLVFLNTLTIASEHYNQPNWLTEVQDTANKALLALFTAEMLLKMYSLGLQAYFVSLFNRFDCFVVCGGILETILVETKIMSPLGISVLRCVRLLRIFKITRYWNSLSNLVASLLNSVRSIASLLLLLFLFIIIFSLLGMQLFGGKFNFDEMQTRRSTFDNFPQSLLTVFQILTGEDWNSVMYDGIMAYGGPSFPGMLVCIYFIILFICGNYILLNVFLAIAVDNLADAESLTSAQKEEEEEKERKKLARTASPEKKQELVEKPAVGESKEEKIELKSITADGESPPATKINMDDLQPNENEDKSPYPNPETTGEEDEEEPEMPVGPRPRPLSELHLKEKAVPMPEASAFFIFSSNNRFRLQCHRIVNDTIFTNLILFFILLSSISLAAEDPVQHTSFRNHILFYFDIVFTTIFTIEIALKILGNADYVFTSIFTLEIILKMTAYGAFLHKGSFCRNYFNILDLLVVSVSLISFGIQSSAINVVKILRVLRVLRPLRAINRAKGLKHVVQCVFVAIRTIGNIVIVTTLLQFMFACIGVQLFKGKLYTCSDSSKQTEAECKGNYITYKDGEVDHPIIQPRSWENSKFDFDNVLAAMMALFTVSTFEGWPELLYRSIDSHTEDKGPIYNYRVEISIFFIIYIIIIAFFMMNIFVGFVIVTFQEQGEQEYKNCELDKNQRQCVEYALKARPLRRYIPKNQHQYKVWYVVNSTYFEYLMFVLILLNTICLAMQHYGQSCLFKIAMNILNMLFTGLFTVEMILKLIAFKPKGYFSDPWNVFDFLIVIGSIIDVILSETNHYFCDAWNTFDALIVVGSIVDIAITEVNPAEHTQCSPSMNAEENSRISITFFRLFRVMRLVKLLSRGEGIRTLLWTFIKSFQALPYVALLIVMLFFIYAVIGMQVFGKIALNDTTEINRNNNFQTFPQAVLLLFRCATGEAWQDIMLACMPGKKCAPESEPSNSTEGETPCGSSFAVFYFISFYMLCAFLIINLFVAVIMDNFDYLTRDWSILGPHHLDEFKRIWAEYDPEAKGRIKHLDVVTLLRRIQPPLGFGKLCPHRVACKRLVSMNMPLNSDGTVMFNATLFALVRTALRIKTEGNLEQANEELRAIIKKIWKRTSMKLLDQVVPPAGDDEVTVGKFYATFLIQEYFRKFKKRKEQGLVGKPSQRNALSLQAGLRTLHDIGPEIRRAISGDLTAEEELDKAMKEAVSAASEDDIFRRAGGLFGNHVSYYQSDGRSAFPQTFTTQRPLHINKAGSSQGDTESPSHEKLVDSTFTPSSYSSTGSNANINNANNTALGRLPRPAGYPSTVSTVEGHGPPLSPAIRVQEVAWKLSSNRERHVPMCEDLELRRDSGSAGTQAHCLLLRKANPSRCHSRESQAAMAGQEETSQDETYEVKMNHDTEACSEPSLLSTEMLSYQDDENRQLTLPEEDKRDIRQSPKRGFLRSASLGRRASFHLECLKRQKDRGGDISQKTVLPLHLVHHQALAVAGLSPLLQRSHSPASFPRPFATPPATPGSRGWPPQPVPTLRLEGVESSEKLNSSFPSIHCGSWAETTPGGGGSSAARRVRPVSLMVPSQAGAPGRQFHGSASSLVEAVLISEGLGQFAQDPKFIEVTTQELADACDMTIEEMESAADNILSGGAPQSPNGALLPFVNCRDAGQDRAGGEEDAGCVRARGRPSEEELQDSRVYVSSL

As for `C[C@H]1CN(C2COC2)CCN1c1ccc(Nc2cc(-c3ccnc(N4CCn5c(cc6c5CC(C)(C)C6)C4=O)c3CO)cn(C)c2=O)nc1` [FENEBRUTINIB], the inhibition in vivo at 16 mg/kg in the series with Rattus norvegicus [1] was 99%. The Time in the series on Rattus norvegicus [2] came to 12 h. Also, the inhibition in vivo at 4 mg/kg with Rattus norvegicus [3] amounted to 89%. Moreover, at Cytochrome P450 2C19, the IC50 was greater than 5 µM. At Nav1.5, this molecule registered an inhibition at 10 µM of 1.9%. For the same molecule, the Activity result in the series on Salmonella typhimurium and in the series on Homo sapiens was “Non-Toxic” throughout. The outcome with Rattus norvegicus [4], in the series with Rattus norvegicus [7] and with Rattus norvegicus [8] was Active. Besides, the CLhep predicted at 1 µM in series [5] was 9.4 mL/min/kg. This molecule also gave a half-life in series [6] of 2.2 h. Further, 1 µM produced 1.5% inhibition on Cav1.2.
